Reference: patent US4450269A, “Mono-5-substituted-3-chloro-4H-1,2,6-thiadiazin-4-one antifungal agents” (FMC Corporation, priority 1980, dated 1984)
Where a name gives a salt, the structure may show the parent alone.

Legend:
Uromyces phaseoli = experiment: whole plant or invertebrate; settings: foliar, read-out: Percent Disease Control, foliar, bean rust
Fusarium solani = experiment: Mycelial growth test; assay type: cell-based; settings: for inhibition at 5 ppm / inhibition at 10 ppm / inhibition at 20 ppm / inhibition at 40 ppm: Fusarium solani, 72 h; for inhibition at 5 ppm / inhibition at 10 ppm / inhibition at 20 ppm / Percent Fungus Growth Inhibition: PS, 72 hours; for inhibition at 5 ppm / inhibition at 10 ppm / inhibition at 20 ppm: read-out: Percent Fungus Growth Inhibition; for inhibition at 40 ppm: read-out: Percent Fungus Growth Inhibition, PS, 40 ppm, 72 hours
Venturia inaequalis = experiment: Spore germination test; assay type: cell-based; settings: VI, 48 hours
Method: VI = Venturia inaequalis
The test chemical was dissolved or suspended in acetone in an amount such that 0.8 ml of the resulting suspension or solution, mixed with 40 ml water agar produced a water agar solution containing 40, 10, 2.5 and 1 ppm of test chemical. The resulting agar solution, at 50° C., was then divided equally between two sterile petri dishes, each having four separated quadrants, and allowed to solidify. […] quadrants of each dish were flooded with 0.1 ml of a spore suspension in sterile water. Spores of two pathogens, Erysiphe polygoni and Uromyes phaseoli, from infected plant leaves, were brushed on the remaining two quadrants. The tests were then incubated 48 hours, at 24° C.
Readings were then taken and the percentage of germinated spores calculated. From this percentage, a spore germination rating was assigned as follows: […]

| Compound | pest or weed control at 150 ppm (Uromyces phaseoli) [%] | inhibition at 5 ppm (Fusarium solani; 5 ppm) [%] | inhibition at 10 ppm (Fusarium solani; 10 ppm) [%] | inhibition at 20 ppm (Fusarium solani; 20 ppm) [%] | inhibition at 40 ppm (Fusarium solani) [%] | Spore Germination Rating (Venturia inaequalis; 1.0 ppm) | Spore Germination Rating (Venturia inaequalis; 2.5 ppm) | Spore Germination Rating (Venturia inaequalis; 10 ppm) | Spore Germination Rating (Venturia inaequalis; 40 ppm) | Percent Fungus Growth Inhibition (Fusarium solani; 10 ppm, hydrochloride) [%] | Percent Fungus Growth Inhibition (Fusarium solani; 20 ppm, hydrochloride) [%] | Spore Germination Rating (Venturia inaequalis; 1.0 ppm, hydrochloride) | Spore Germination Rating (Venturia inaequalis; 2.5 ppm, hydrochloride) | Spore Germination Rating (Venturia inaequalis; 10 ppm, hydrochloride) | Spore Germination Rating (Venturia inaequalis; 40 ppm, hydrochloride) | Percent Fungus Growth Inhibition (Fusarium solani; 5 ppm) [%] | Percent Fungus Growth Inhibition (Fusarium solani; 10 ppm) [%] | Percent Fungus Growth Inhibition (Fusarium solani; 20 ppm) [%] | Percent Fungus Growth Inhibition (Fusarium solani; 40 ppm) [%] |
| --- | --- | --- | --- | --- | --- | --- | --- | --- | --- | --- | --- | --- | --- | --- | --- | --- | --- | --- | --- |
| O=c1c(Cl)nsnc1Oc1cccc(C(F)(F)F)c1 [Compound 44, 3-chloro-5-[(3-trifluoromethyl)phenoxy]-4H--1,2,6-thiadiazin-4-one] | 100 | 100 | 100 | 100 | 100 | 1 (10-40) | 1 (10-40) | 0 (0-10) | 0 (0-10) |  |  |  |  |  |  |  |  |  |  |
| C[S+]([O-])c1ccc(Oc2nsnc(Cl)c2=O)cc1 (stereo not drawn) [Compound 40, 3-chloro-5-[(4-methylsulfinyl)phenoxy]-4H-1,2,6,-thiadiazin-4-one] | 98 | 5 | 16 | 26 | 53 |  |  |  |  |  |  |  |  |  |  |  |  |  |  |
| Cc1ccc(Oc2nsnc(Cl)c2=O)c(C)c1 [Compound 23, 3-chloro-5-(2,4-dimethylphenoxy)-4H--1,2,6-thiadiazin-4-one] | 100 | 17 | 33 | 100 | 100 | 4 (80-100) | 3 (60-80) | 1 (10-40) | 0 (0-10) |  |  |  |  |  |  |  |  |  |  |
| CSc1ccc(Oc2nsnc(Cl)c2=O)cc1 [Compound 39, 3-chloro-5-[(4-methylthio)phenoxy]-4H-1,2,6,-thiadiazin-4-one] | 98 | 42 | 79 | 68 | 42 |  |  |  |  |  |  |  |  |  |  |  |  |  |  |
| CC(=O)Nc1cccc(Oc2nsnc(Cl)c2=O)c1 [Compound 42, 3-[(3-N--acetylamino)-phenoxy]-5-chloro-4H--1,2,6-thiadiazin-4-one] | 100 | 31 | 19 | 13 | 38 | 4 (80-100) | 4 (80-100) | 4 (80-100) | 1 (10-40) |  |  |  |  |  |  |  |  |  |  |
| COc1cc(Cl)cc(Oc2nsnc(Cl)c2=O)c1 [Compound 52, 3-chloro-5-[(3-chloro-5-methoxy)phenoxy]-4H--1,2,6-thiadiazin-4-one] | 0 | 80 | 90 | 100 | 100 |  |  |  |  |  |  |  |  |  |  |  |  |  |  |
| N#Cc1ccc(Oc2nsnc(Cl)c2=O)cc1 [Compound 10, 3-chloro-5-(4-cyanophenoxy)-4H--1,2,6-thiadiazin-4-one] | 100 | 17 | 33 | 50 | 75 | 0 (0-10) | 0 (0-10) | 0 (0-10) | 0 (0-10) |  |  |  |  |  |  |  |  |  |  |
| O=c1c(Cl)nsnc1Oc1ccccc1Br [Compound 34, 3-chloro-5-(2-bromophenoxy)-4H-1,2,6,-thiadiazin-4-one] | 85 | 13 | 43 | 50 | 100 | 0 (0-10) | 0 (0-10) | 0 (0-10) | 0 (0-10) |  |  |  |  |  |  |  |  |  |  |
| Cc1cc(Oc2nsnc(Cl)c2=O)cc(C)c1Cl [Compound 59, 3-chloro-5-[(4-chloro-3,5-dimethyl)phenoxy]-4H--1,2,6-thiadiazin-4-one] | 0 | 50 | 56 | 69 | 56 | 1 (10-40) | 1 (10-40) | 0 (0-10) | 1 (10-40) |  |  |  |  |  |  |  |  |  |  |
| Cc1cc(C)cc(Oc2nsnc(Cl)c2=O)c1 [Compound 25, 3-chloro-5-(3,5-dimethylphenoxy)-4H--1,2,6-thiadiazin-4-one] | 100 | 50 | 100 | 100 | 100 | 4 (80-100) | 0 (0-10) | 2 (40-60) | 0 (0-10) |  |  |  |  |  |  |  |  |  |  |
| O=c1c(Cl)nsnc1Oc1c(Cl)c(Cl)c(Cl)c(Cl)c1Cl [Compound 31, 3-chloro-5-(pentachlorophenoxy)-4H--1,2,6-thiadiazine-4-one] | 0 | 42 | 42 | 58 | 58 | 0 (0-10) | 0 (0-10) | 0 (0-10) | 0 (0-10) |  |  |  |  |  |  |  |  |  |  |
| Nc1ccc(Oc2nsnc(Cl)c2=O)cc1 [Compound 27, 5-(4-aminophenoxy)-3-chloro-4H--1,2,6-thiadiazine-4-one hydrochloride] |  |  |  |  |  |  |  |  |  | 8 | 13 | 0 (0-10) | 0 (0-10) | 0 (0-10) | 0 (0-10) |  |  |  |  |
| COc1cc(Oc2nsnc(Cl)c2=O)cc(OC)c1C(C)=O [Compound 61, 3-[(4-acetyl-3,5-dimethoxy)-phenoxy]-5-chloro-4H--1,2,6-thiadiazin-4-one] | 100 | 16 | 46 | 23 | 0 |  |  |  |  |  |  |  |  |  |  |  |  |  |  |
| O=c1c(Cl)nsnc1Oc1cccc2ccccc12 [Compound 32, 3-chloro-5(1-naphthoxy)-4H-1,2,6-thiadiazin-4-one] | 90 | 100 | 100 | 100 | 100 | 3 (60-80) | 0 (0-10) | 0 (0-10) | 0 (0-10) |  |  |  |  |  |  |  |  |  |  |
| Cc1ccc(Oc2nsnc(Cl)c2=O)cc1 [Compound 3, 3-chloro-5-(4-methylphenoxy)-4H--1,2,6-thiadiazin-4-one] | 100 | 35 | 53 | 65 | 65 | 4 (80-100) | 4 (80-100) | 0 (0-10) | 0 (0-10) |  |  |  |  |  |  |  |  |  |  |
| O=c1c(Cl)nsnc1Oc1c(Cl)cc(Cl)cc1Cl [Compound 30, 3-chloro-5-(2,4,6-trichlorophenoxy)-4H--1,2,6-thiadiazin-4-one] | 100 | 52 | 81 | 90 | 100 | 1 (10-40) | 0 (0-10) | 0 (0-10) | 0 (0-10) |  |  |  |  |  |  |  |  |  |  |
| O=c1c(Cl)nsnc1Oc1ccc(Cl)c(Cl)c1 [Compound 16, 3-chloro-5-(3,4-dichlorophenoxy)-4H--1,2,6-thiadiazin-4-one] | 90 | 53 | 47 | 47 | 41 | 0 (0-10) | 0 (0-10) | 0 (0-10) | 0 (0-10) |  |  |  |  |  |  |  |  |  |  |
| CC(C)(C)c1ccc(Oc2nsnc(Cl)c2=O)cc1 [Compound 4, 3-chloro-5-(4-tert-butylphnoxy)-4H--1,2,6-thiadiazin-4-one] | 100 | 0 | 0 | 0 | 8 | 4 (80-100) | 4 (80-100) | 0 (0-10) | 0 (0-10) |  |  |  |  |  |  |  |  |  |  |
| COc1ccc(Cl)c(Oc2nsnc(Cl)c2=O)c1 [Compound 51, 3-chloro-5-[(2-chloro-5-methoxy)phenoxy]-4H--1,2,6-thiadiazin-4-one] | 0 | 60 | 85 | 100 | 100 |  |  |  |  |  |  |  |  |  |  |  |  |  |  |
| COc1ccc(Oc2nsnc(Cl)c2=O)cc1 [Compound 5, 3-chloro-5-(4-methoxyphenoxy)4H--1,2,6-thiadiazin-4-one] | 100 | 18 | 35 | 6 | 71 | 3 (60-80) | 0 (0-10) | 0 (0-10) | 0 (0-10) |  |  |  |  |  |  |  |  |  |  |
| N#CCc1ccc(Oc2nsnc(Cl)c2=O)cc1 [Compound 46, 3-chloro-5-[(4-cyanomethyl)-phenoxy]4H--1,2,6-thiadiazin-4-one] | 0 | 35 | 70 | 90 | 100 |  |  |  |  |  |  |  |  |  |  |  |  |  |  |
| CS(=O)(=O)c1ccc(Oc2nsnc(Cl)c2=O)cc1 [Compound 41, 3-chloro-5-[(4-methylsulfonyl)phenoxy]-4H--1,2,6-thiadiazin-4-one] | 0 | 16 | 16 | 42 | 68 |  |  |  |  |  |  |  |  |  |  |  |  |  |  |
| O=C(Nc1ccccc1)Oc1ccc(Oc2nsnc(Cl)c2=O)cc1 [Compound 37, 3-chloro-5-[4-(phenylaminocarbonyloxy)phenoxy]-4H-1,2,6,-thiadiazin-4-one] | 100 | 26 | 16 | 26 | 42 |  |  |  |  |  |  |  |  |  |  |  |  |  |  |
| 3-chloro-5-(bromophenoxy)-4H-1,2,6-thiadiazin-4-one [Compound 33] |  |  |  |  |  | 0 (0-10) | 0 (0-10) | 0 (0-10) | 0 (0-10) |  |  |  |  |  |  | 3 | 33 | 53 | 93 |
